Source: patent US20100016293A1, “Quinazolines and Related Heterocyclic Compounds, and Their Therapeutic Use” (priority 2006, published 2010)

Target: T1, human H4 receptor (Homo sapiens, UniProt Q9H3N8)
T1 construct: expressed in transfected cells; host or cells: HEK 293T cells, transient transfection with polyethyleneimine
Assay: Radioligand displacement studies at the human H4 receptor ([3H]histamine)
Format: binding
Conditions: [3H]histamine displacement, membranes of HEK 293T cells transfected with human H4R, 1 hour at 22° C.
Protocol: Radioligand displacement studies at the human H4 receptor were conducted. […] Approximately 4 million cells were seeded in a 10-cm dish and cultured overnight before transfection. For transfection of each dish of cells, the transfection mixture was prepared in 1 ml serum-free DMEM and contained 5 μg of human H4R receptor plasmid and 15 μl of 1 mg/ml 25 kDa linear polyethyleneimine (Polyscience, Inc., USA). The mixture was incubated for 10-15 minutes at room temperature before it was added into the monoloyer cell culture loaded with 5 ml fresh cell culture medium. Two days after transfection the cells were washed with PBS containing 1 mM EDTA, collected as pellet by centrifuging, and stored at −20° C. until use.
For the radioligand binding study, pellets of transfected cells were homogenized in H4R binding buffer (100 mM Tris-HCl, pH 7.4). For displacement binding assays, the membranes were typically incubated with 10^−4 to 10^−11 M of ligands (stock concentration was 10 mM 1 DMSO) in the presence of [^3H]histamine (Perkin-Elmer Life Science, Inc., USA) in a total volume of 200 μl. The reaction mixtures were incubated for 1 hour at room temperature (22° C.), and harvested on 96-well glass fiber C plates that were pretreated with 0.3% 750 kDa PEI. The binding assay data were analyzed using Prism 4.0 (Graphpad Software Inc., USA).

T1 sequence (Q9H3N8 whole entry): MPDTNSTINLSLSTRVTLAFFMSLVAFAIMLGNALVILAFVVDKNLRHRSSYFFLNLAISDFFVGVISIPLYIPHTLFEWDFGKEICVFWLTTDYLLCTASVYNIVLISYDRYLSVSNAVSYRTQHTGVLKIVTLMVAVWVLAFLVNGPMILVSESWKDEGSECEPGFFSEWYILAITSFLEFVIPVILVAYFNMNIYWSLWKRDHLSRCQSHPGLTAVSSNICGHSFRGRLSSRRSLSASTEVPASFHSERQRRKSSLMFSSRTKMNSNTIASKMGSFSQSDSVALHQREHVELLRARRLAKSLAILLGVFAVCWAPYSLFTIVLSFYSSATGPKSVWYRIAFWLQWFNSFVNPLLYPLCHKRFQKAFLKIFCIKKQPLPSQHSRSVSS

Compound: CN1CCN(c2ccc3cc(Cl)ccc3n2)CC1 [VUF6959, 6-Chloro-2-(4-methyl-piperazinyl)-quinoline]
- Ki: < 1 µM

Compound: CCOC(=O)CNc1nc(N2CCN(C)CC2)nc2ccc(Cl)cc12 [VUF10456, Ethyl 2-(6-chloro-2-(4-methylpiperazin-1-yl)quinazolin-4-ylamino)acetate]
- Ki: < 1 µM

Compound: COc1ccc(CNc2nc(N3CCN(C)CC3)nc3ccc(Cl)cc23)cc1 [VUF10505, 6-Chloro-N-(4-methoxybenzyl)-2-(4-methylpiperazin-1-yl)quinazolin-4-amine]
- Ki: < 1 µM

Compound: CN1CCN(c2nc(NCCc3ccc([N+](=O)[O-])cc3)c3cc(Cl)ccc3n2)CC1 [VUF10506, 6-Chloro-2-(4-methylpiperazin-1-yl)-N-(4-nitrophenethyl)quinazolin-4-amine]
- Ki: < 1 µM

Compound: CN1CCN(c2nc(NCc3ccc(N)cc3)c3cc(Cl)ccc3n2)CC1 [VUF10509, N-(4-aminobenzyl)-6-chloro-2-(4-methylpiperazin-1-yl)quinazolin-4-amine]
- Ki: < 1 µM

Compound: CN1CCN(c2nc(NCc3ccc(F)cc3)c3cc(Cl)ccc3n2)CC1 [VUF10513, 6-Chloro-N-(4-fluorobenzyl)-2-(4-methylpiperazin-1-yl)quinazolin-4-amine]
- Ki: < 1 µM

Compound: CN1CCN(c2nc(NCc3ccc(C#N)cc3)c3cc(Cl)ccc3n2)CC1 [VUF10553, 4-((6-Chloro-2-(4-methylpiperazin-1-yl)quinazolin-4-ylamino)methyl)benzonitrile]
- Ki: < 1 µM
